Assay results taken from patent US8822440B2, “Inhibiting cyclin D polypeptides” (Mayo Foundation for Medical Education and Research, priority 2006, dated 2014).

Tests used:
[1] = tested on: cyclin D1, cyclin D2, cyclin D3; test: Immunoblot of cyclin D proteins in HMCL; type: cell-based, human
Experimental: Immunoblotting. Cytosolic extracts were prepared from HMCL or purified patient CD138^+ myeloma cells following exposure to kinetin riboside. Cells were washed with cold PBS, resuspended in cold RIPA buffer (5×10^6 cells/100 μL) containing fresh protease and phosphatase inhibitors (Santa Cruz Biotechnology, Santa Cruz, Calif.) and incubated on ice for 30 minutes with gentle mixing. The supernatant was repossessed following high speed centrifugation, and protein concentrations were determined by the Bradford assay. Immunoblot assays were performed as described elsewhere (Krajewski et al., Anal. Biochem., 236:221-228 (1996)). Briefly, equal amounts of protein were separated by SDS-PAGE and transferred to a PVDF nitrocellulose membrane using a semi-dry apparatus. Membranes were blocked using 5% skim milk in Tris buffered saline and probed with monoclonal mouse anti-cyclin D1 (DCS-6, Biosource, Camarillo, Calif.), polyclonal rabbit anti-cyclin D2 (#2924, Cell Signalling Technology), monoclonal mouse anti-cyclin D3 (DCS-22, BioSource), polyclonal rabbit anti-c-Maf (M-153, Santa Cruz), polyclonal rabbit anti-Cleaved Caspase 9 (Asp315) (Cell Signaling Technology), monoclonal mouse anti-β-actin (Cell Signaling Technology) and/or monoclonal anti-a-tubulin (B-7)(Santa Cruz Biotechnology, Santa Cruz, Calif.). Membrane proteins were visualized using HRP-conjugated species-specific secondary antibodies (Cell Signaling Technology) and enhanced chemiluminescence (Pierce, Rockford, Ill.).

H929 and U266 HMCL = test: Gene expression profiling (Affymetrix) of H929 and U266; type: cell-based, human; conditions: 5 μM, 4 hours
Experimental: Gene expression profiling. H929 and U266 HMCL were treated with kinetin riboside (5 μM), an unrelated cytotoxic pristimerin (0.5 μM), or DMSO vehicle for 4 hours under normal culture conditions. RNA was then isolated using Trizol and further purified by Qiagen column, according to the manufacturer's instructions and was assessed using a BioAnalyzer 2100 (Agilent Technologies, Palo Alto, Calif.). Microarray hybridization using Affymetrix Hg_U133—2+ chips (Affymetrix, Santa Clara, Calif.) was performed as described elsewhere (Abraham et al., Blood 105, 794-803 (2005)). Gene expression intensity values were log transformed, normalized by chip and by cell line to DMSO-control treated samples and analyzed using GeneSpring 7 (Agilent Technologies, Palo Alto, Calif.). Expression values were filtered by raw intensity level to exclude non-expressed probe-sets with raw expression within one log (10) of the minimum level observed. Only probe sets with sub-threshold intensities in all samples (treated and untreated) were excluded.
Analysis of CREM gene variant transcript expression. […]

CD138+ myeloma cells = test: Unsorted myeloma patient bone marrow, flow cytometry: CD138+ myeloma cells; type: cell-based, human
Experimental: Flow cytometry. HMCL were treated as indicated and then washed in cold phosphate-buffered saline (PBS) and resuspended in buffer containing AnnexinV-FITC and propidium iodide (BD Biosciences, San Jose, Calif.) for 15 minutes at room temperature. Cells (10^5) were subsequently diluted and analyzed immediately by flow cytometry (FACScan, BD Biosciences, San Jose, Calif.) using CellQuest software. Patient bone marrow specimens were prepared and analyzed in a similar fashion using AnnexinV-FITC and anti-CD138-PE (BD Biosciences, San Jose, Calif.).
As mouse embryos that lack any D-cyclins eventually die from hematopoietic failure (Kozar et al., Cell, 118, 477-91 (2004)), the bone marrow might be predicted to be one of the most sensitive non-malignant tissue to be affected by drugs targeting cyclin D expression. Unsorted bone marrow samples from myeloma patients were treated with kinetin riboside to assess the relative cytotoxicity of this drug on malignant versus non-malignant marrow cells. Bone marrow samples were first processed to remove non-nucleated red cells and were then treated for 48 hours with kinetin riboside (5 μM).

[2] = Tolerability of kinetin riboside in xenografted BNX mice; type: in vivo
Experimental: Female nude X-linked immune-deficient (BNX) mice purchased from NCI-Frederick were used for in vivo studies. Animals had access to food and water ad libitum and were handled in accordance with animal care and use guidelines. Eight-week-old mice were inoculated with My5 or 8226 (2×10^7) MM cells subcutaneously (s.c.) in the right flank. Kinetin riboside (pre-dissolved in DMSO at 500 mg/mL and stored at −20° C.) was formulated daily by dropwise dissolution to 3.7 mg/mL in pre-warmed (37° C.) 0.9% saline, 1% β2-hydroxypropylcyclodextrin (Sigma) solution and was administered 1×-5× daily at 85 mg/kg/dose. The first dose daily was given intraperitoneally and remaining doses were given s.c. with increasing dosing intervals (30, 60, 120, 180 minutes). Tumor volumes were measured using vernier calipers and calculated with the formula L×W×H×2/3. P-values were calculated by paired t-test (JMP 6.0, SAS; Cary, N.C.).
The anti-tumor activity of kinetin riboside in vivo was evaluated against My5 and 8226 human myeloma tumors grown as xenografts in nude mice. Drug or vehicle were initially administered once daily with dosing up to100 mg/kg/day, however, no effect on 8226 or My5 (FIG. 14A) tumor growth was observed. […] Xenograft studies were then repeated with 8226 tumors using kinetin riboside 85 mg/kg 4× daily upfront, started when tumors had reached a mean volume of 135 mm^3 (FIG. 14B). […] No effects on neutrophil counts (at 14 days treatment) or on body weight were observed.

## OC[C@H]1O[C@@H](n2cnc3c(NCc4ccco4)ncnc32)[C@H](O)[C@@H]1O [kinetin riboside, N6-Furfuryladenosine]
[1]
  lag between exposure and cyclin D1 or D2 suppression: 4 to 6 h
[1]; H929, 10 μM
  time to suppression of cyclin D1 and D2 proteins: ≤ 6 h
  time until cyclin D3 levels significantly affected: ≥ 28 h
[1]; HMCL, 10 μM, 16 hours
  cyclin D3 protein levels: did not influence cyclin D3 levels
[1]; Kms11
  cyclin D1 and D2 protein levels in Kms11: significant suppression only of cyclin D2 but not D1
[1]; U266, 10 μM, 16 hours
  cyclin D1 protein level in U266: suppression of cyclin D1
[1]; all HMCL tested, 10 μM, 16 hours
  cyclin D1 and/or D2 protein levels: significant suppression
H929 and U266 HMCL
  CREM isoform expression: preferential induction of CREM isoforms
  number of genes with 3-fold or greater change in expression in both H929 and U266: approximately 35 genes
CD138+ myeloma cells; 5 μM, 48 hours
  kill of patient CD138+ myeloma cells: 92%
CD138+ myeloma cells; patient bone marrow, 48 hours
  effect on primary CD138+ myeloma cells: most CD138+ cells become apoptotic
CD138+ myeloma cells; unsorted myeloma patient bone marrow samples
  activity against CD138+ myeloma cells compared with non malignant hematopoietic cells: selective activity
[2]; at 14 days treatment
  effect on neutrophil counts: No effects
[2]; mouse, in vivo
  effect on body weight: No effects
[2]; up to five per day at 85 mg/kg/dose
  tolerability of rapidly repeated doses: well tolerated
